{"source": "patent US20160016907A1", "about": "“PYRIDINE DERIVATIVES AS MUSCARINIC M1 RECEPTOR POSITIVE ALLOSTERIC MODULATORS” (PFIZER INC., priority 2014, published 2016)", "note": "Counter-ions that a name gives are not always drawn."}
{"target": "T1, human M1 muscarinic acetylcholine receptors (Homo sapiens, UniProt P11229)", "T1 sequence (P11229 1-460)": "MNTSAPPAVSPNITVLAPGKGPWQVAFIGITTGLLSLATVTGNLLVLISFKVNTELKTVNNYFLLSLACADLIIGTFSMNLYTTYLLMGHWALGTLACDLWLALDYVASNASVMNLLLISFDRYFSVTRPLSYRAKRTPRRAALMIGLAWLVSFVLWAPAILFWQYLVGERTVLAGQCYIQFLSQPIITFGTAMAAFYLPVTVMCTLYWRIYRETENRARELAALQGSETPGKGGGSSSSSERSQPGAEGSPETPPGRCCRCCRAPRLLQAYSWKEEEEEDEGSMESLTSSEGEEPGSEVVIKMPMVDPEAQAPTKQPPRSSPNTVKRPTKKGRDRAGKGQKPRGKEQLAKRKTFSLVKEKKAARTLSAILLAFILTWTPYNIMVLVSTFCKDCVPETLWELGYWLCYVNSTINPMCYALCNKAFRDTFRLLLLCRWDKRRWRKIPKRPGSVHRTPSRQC", "test": "M1 FLIPR assay (PAM, intracellular calcium)", "assay_type": "cell-based", "conditions": "potentiation of EC10-EC30 acetylcholine, values marked a: geometric mean of ≧7 determinations, read-out: M1 PAM Inflection Point (μM) Geometric mean of 2-6 determinations (unless otherwise indicated)", "procedure": "This assay was designed to select and characterize compounds that affect the activity of human M1 muscarinic acetylcholine receptors (Similar M1 PAM FLIPR assays can be found, for example, at U.S. Pat. No. 8,664,234). Human M1 receptors were stably expressed in Chinese hamster ovary (CHO) cells (HD Bioscience). The effect of test compounds on intracellular calcium was measured on an FLIPR Tetra (Molecular Devices) using the Fluo-8, AM calcium dye (Molecular Probes) with a red dye quenching agent (Sigma).\nCHO cells expressing hM1 cells had been previously cultured and frozen in assay ready vials. Cell vials were thawed, then plated at a density of 10,000 cells per well in a 384 well black wall, clear bottom plate (Greiner #781090) and incubated overnight at 37 degrees C. with 5% CO2. Cells were grown and plated in F12 nutrient media (Gibco BRL #21700-075) supplemented with 10% FBS (Hyclone #CH30160.03) and Pen/Strep (Gibco #15070-063).\nAfter overnight incubation, cell plates were removed from the incubator and the growth media was discarded and replaced with loading solution containing the following: 2 μM Fluo-8-AM (Molecular Probes #F14242), 2 mM Probenecid (Sigma #P8761), lx Acid Red 1 (Sigma #210633), in HBSS buffer containing (grams/L): 0.1 CaCl2, 0.1 MgCl2*6H2O, 0.049 MgSO4, 0.4 KCl, 0.06 KH2PO4, 8.06 NaCl, 0.12 Na2HPO4*12H2O, 1.1 D-glucose*H2O, 0.35 NaHCO3, 4.766 HEPES, pH 7.4. The plate was incubated in the loading solution at 37 degrees C. in the dark for 1 hour.\nTest compounds were initially prepared as 100% DMSO stock solutions, then transferred and serially diluted in 384-well compound plates (Greiner #784201). Each compound was tested at 10 concentrations in duplicate per experiment. Positive and negative controls for positive allosteric modulator evaluation were 30 μM acetylcholine (Ach) and an EC10-EC30 concentration of acetylcholine, approximately 2 nM but could be adjusted for each experiment to maintain the EC10-EC30 range.\nAfter the 1-hour dye loading incubation, test compounds were added to the cell plate containing Fluo-8. Approximately 10 minutes after compound addition, an EC10-EC30 concentration of acetylcholine was added to each well and the fluorescence measured to determine the PAM potentiation of the compound.\nData was exported from the FLIPR Tetra as maximum fluorescence/minimum fluorescence for each well. The percent effect for each compound well was determined using the mean values for the positive and negative controls on each plate for each read. Percent effect was 100*(compound negative control)/(positive control negative control). Dose response curves were fitted to the compound percent effect data using a 4-parameter logistic fit model to determine PAM (positive allosteric modulator) Inflection Point values. Compounds with inverted U dose response curves had the concentrations greater than the concentration giving the peak response excluded from the fit. Data was reported as Inflection Point. The compounds of Examples 1-72 had activity according to this assay, generally with an Inflection Point (IP) of 10 μM or less (using Inflection Point as a measure of activity). Such a result is indicative of the intrinsic activity of the compounds of the invention as M1 allosteric modulators.", "units": {"EC50": "µM"}}
{"smiles": "Cc1cnc(C(=O)NC2CCCC2O)cc1Cc1ccc(-n2cccn2)cc1", "note": "(racemic) [Example 34, N-[trans-2-hydroxycyclopentyl]-5-methyl-4-[4-(1H-pyrazol-1-yl)benzyl]pyridine-2-carboxamide]", "EC50": 1.02}
{"smiles": "Cc1cnc(C(=O)NC2CCCC2O)cc1Cc1ccc(-n2cccn2)cc1", "note": "(racemic) [Example 49, N-[cis-2-hydroxycyclopentyl]-5-methyl-4-[4-(1H-pyrazol-1-yl)benzyl]pyridine-2-carboxamide]", "EC50": 1.63}
{"smiles": "Cc1nnc(-c2ccc(Cc3cc(C(=O)NC4CCOCC4O)ncc3C)cc2)o1", "note": "(single isomer, unassigned) [Example 20]", "EC50": "> 9.94"}
{"smiles": "Cc1nnc(-c2ccc(Cc3cc(C(=O)NC4CCOCC4O)ncc3C)cc2)o1", "note": "(single isomer, unassigned) [Example 21]", "EC50": 1.95}
{"smiles": "Cc1cnc(C(=O)NC2CCCCC2(F)F)cc1Cc1ccc(-n2cccn2)cc1", "note": "(single isomer, unassigned) [Example 46]", "EC50": 1.22}
{"smiles": "Cc1cnc(C(=O)NC2CCCCC2(F)F)cc1Cc1ccc(-n2cccn2)cc1", "note": "(single isomer, unassigned) [Example 47]", "EC50": 0.57}
{"smiles": "Cc1cnc(C(=O)N[C@H]2CCCC[C@@H]2O)cc1C(F)c1ccc(-n2cccn2)cc1", "note": "(single isomer, unassigned) [Example 63]", "EC50": 8.76}
{"smiles": "Cc1cnc(C(=O)N[C@H]2CCCC[C@@H]2O)cc1C(F)c1ccc(-n2cccn2)cc1", "note": "(single isomer, unassigned) [Example 64]", "EC50": 0.033}
{"smiles": "Cc1nc(-c2ccc(Cc3cc(C(=O)NC4CCOCC4O)ncc3C)cc2)co1", "note": "(single isomer, unassigned; (+)) [Example 11, (+)-N-[(3,4-trans)-3-Hydroxytetrahydro-2H-pyran-4-yl]-5-methyl-4-[4-(2-methyl-1,3-oxazol-4-yl)benzyl]pyridine-2-carboxamide]", "EC50": 0.146}
{"smiles": "Cc1cnc(C(=O)NC2CCCCC2O)cc1Cc1ccc(-n2cccn2)cc1", "note": "(single isomer, unassigned; (+)) [Example 13, (+)-N-[(1,2-cis)-2-Hydroxycyclohexyl]-5-methyl-4-[4-(1H-pyrazol-1-yl)benzyl]pyridine-2-carboxamide]", "EC50": 1.46}
{"smiles": "Cc1nc(-c2ccc(Cc3cc(C(=O)NC4CCOCC4O)ncc3C)cc2)co1", "note": "(single isomer, unassigned; (-)) [Example 10, (−)-N-[(3,4-trans)-3-Hydroxytetrahydro-2H-pyran-4-yl]-5-methyl-4-[4-(2-methyl-1,3-oxazol-4-yl)benzyl]pyridine-2-carboxamide]", "EC50": 6.34}
{"smiles": "Cc1cnc(C(=O)NC2CCCCC2O)cc1Cc1ccc(-n2cccn2)cc1", "note": "(single isomer, unassigned; (-)) [Example 12, (−)-N-[(1,2-cis)-2-Hydroxycyclohexyl]-5-methyl-4-[4-(1H-pyrazol-1-yl)benzyl]pyridine-2-carboxamide]", "EC50": 0.96}
{"smiles": "Cc1cnc(C(=O)N[C@H]2CCOC[C@@H]2O)cc1C(F)c1ccc(-c2cscn2)cc1", "note": "(single isomer, unassigned; diastereomer 1) [Example 59]", "EC50": 1.83}
{"smiles": "Cc1cnc(C(=O)NC2CCOCC2O)cc1Cc1ccc(-c2cncs2)cc1", "note": "(single isomer, unassigned; ent-1) [Example 4, N-[(3,4-trans)-3-Hydroxytetrahydro-2H-pyran-4-yl]-5-methyl-4-[4-(1,3-thiazol-5-yl)benzyl]pyridine-2-carboxamide, ENT-1]", "EC50": 8.11}
{"smiles": "Cc1cnc(C(=O)NC2CCOCC2O)cc1Cc1ccc(-c2cncs2)cc1", "note": "(single isomer, unassigned; ent-2) [Example 5, N-[(3,4-trans)-3-Hydroxytetrahydro-2H-pyran-4-yl]-5-methyl-4-[4-(1,3-thiazol-5-yl)benzyl]pyridine-2-carboxamide, ENT-2]", "EC50": 0.18}
{"smiles": "Cc1cnc(C(=O)N[C@H]2CCOC[C@@H]2O)cc1Cc1ccc(-c2cnn(C)c2)cc1F", "note": "[Example 2, 4-[2-Fluoro-4-(1-methyl-1H-pyrazol-4-yl)benzyl]-N-[(3R,4S)-3-hydroxytetrahydro-2H-pyran-4-yl]-5-methylpyridine-2-carboxamide]", "EC50": 0.125}
{"smiles": "Cc1cnc(C(=O)N[C@H]2CCOC[C@@H]2O)cc1Cc1ccc(-c2nccs2)cc1", "note": "[Example 3, N-[(3R,4S)-3-Hydroxytetrahydro-2H-pyran-4-yl]-5-methyl-4-[4-(1,3-thiazol-2-yl)benzyl]pyridine-2-carboxamide]", "EC50": 0.101}
{"smiles": "Cc1cnc(C(=O)N[C@H]2CCOC[C@@H]2O)cc1Cc1ccc(-c2ccn(C)n2)cc1", "note": "[Example 6, N-[(3R,4S)-3-Hydroxytetrahydro-2H-pyran-4-yl]-5-methyl-4-[4-(1-methyl-1H-pyrazol-3-yl)benzyl]pyridine-2-carboxamide]", "EC50": 0.142}
{"smiles": "Cc1cnc(C(=O)N[C@H]2CCOC[C@@H]2O)cc1Cc1ccc(-c2cscn2)cc1", "note": "[Example 7, N-[(3R,4S)-3-Hydroxytetrahydro-2H-pyran-4-yl]-5-methyl-4-[4-(1,3-thiazol-4-yl)benzyl]pyridine-2-carboxamide]", "EC50": 0.06}
{"smiles": "Cc1cnc(C(=O)N[C@@H]2CCOC[C@H]2O)cc1Cc1ccc(-n2cccn2)cc1", "note": "[Example 8, N-[(3S,4R)-3-Hydroxytetrahydro-2H-pyran-4-yl]-5-methyl-4-[4-(1H-pyrazol-1-yl)benzyl]pyridine-2-carboxamide]", "EC50": 4.86}
{"smiles": "Cc1cnc(C(=O)N[C@H]2CCOC[C@@H]2O)cc1Cc1ccc(-n2cccn2)cc1", "note": "[Example 9, N-[(3R,4S)-3-Hydroxytetrahydro-2H-pyran-4-yl]-5-methyl-4-[4-(1H-pyrazol-1-yl)benzyl]pyridine-2-carboxamide]", "EC50": 0.109}
{"smiles": "Cc1nc(C(=O)N[C@H]2CCOC[C@@H]2O)cc(Cc2ccc(-n3cccn3)cc2)c1Cl", "note": "[Example 14, 5-Chloro-N-[(3R,4S)-3-hydroxytetrahydro-2H-pyran-4-yl]-6-methyl-4-[4-(1H-pyrazol-1-yl)benzyl]pyridine-2-carboxamide]", "EC50": 0.116}
{"smiles": "COc1cnc(C(=O)N[C@H]2CCOC[C@@H]2O)cc1Cc1ccc(-n2cccn2)cc1", "note": "[Example 15, N-[(3R,4S)-3-Hydroxytetrahydro-2H-pyran-4-yl]-5-methoxy-4-[4-(1H-pyrazol-1-yl)benzyl]pyridine-2-carboxamide]", "EC50": 0.065}
{"smiles": "Cc1cnc(C(=O)NC[C@@H]2CCCO2)cc1Cc1ccc(-n2cccn2)cc1", "note": "[Example 16, 5-Methyl-4-[4-(1H-pyrazol-1-yl)benzyl]-N-[(2S)-tetrahydrofuran-2-ylmethyl]pyridine-2-carboxamide, formate salt]", "EC50": 1.82}
{"smiles": "Cc1nc(C(=O)N[C@H]2CCCC[C@@H]2O)cc(Cc2ccc(-n3cccn3)cc2)c1Cl", "note": "[Example 17, 5-Chloro-N-[(1S,2S)-2-hydroxycyclohexyl]-6-methyl-4-[4-(1H-pyrazol-1-yl)benzyl]pyridine-2-carboxamide]", "EC50": 0.191}
{"smiles": "Cc1cnc(C(=O)N[C@H]2CCCC[C@@H]2O)cc1Cc1ccc(-n2cccn2)cc1", "note": "[Example 18, N-[(1S,2S)-2-Hydroxycyclohexyl]-5-methyl-4-[4-(1H-pyrazol-1-yl)benzyl]pyridine-2-carboxamide]", "EC50": 0.092}
{"smiles": "Cc1nc(-c2ccc(Cc3cc(C(=O)N[C@H]4CCOC[C@@H]4O)ncc3C)cc2)no1", "note": "[Example 19, N-[(3R,4S)-3-hydroxytetrahydro-2H-pyran-4-yl]-5-methyl-4-[4-(5-methyl-1,2,4-oxadiazol-3-yl)benzyl]pyridine-2-carboxamide]", "EC50": 5.57}
